In ChEMBL document CHEMBL3091290, “2-(2-Phenylmorpholin-4-yl)pyrimidin-4(3H)-ones; a new class of potent, selective and orally active glycogen synthase kinase-3β inhibitors” (Bioorg Med Chem Lett, 2013):

Legend:
Liver microsome [1] = test: Intrinsic clearance in human liver microsomes; assay type: ADME
Cytochrome P450 2D6 = Cytochrome P450 2D6 (Homo sapiens, UniProt P10635); test: Inhibition of recombinant human CYP2D6; assay type: ADME
Cytochrome P450 1A2 = biological target: T1, Cytochrome P450 1A2 (Homo sapiens, UniProt P05177); test: Inhibition of recombinant human CYP1A2; assay type: ADME
T1 sequence (P05177 whole entry): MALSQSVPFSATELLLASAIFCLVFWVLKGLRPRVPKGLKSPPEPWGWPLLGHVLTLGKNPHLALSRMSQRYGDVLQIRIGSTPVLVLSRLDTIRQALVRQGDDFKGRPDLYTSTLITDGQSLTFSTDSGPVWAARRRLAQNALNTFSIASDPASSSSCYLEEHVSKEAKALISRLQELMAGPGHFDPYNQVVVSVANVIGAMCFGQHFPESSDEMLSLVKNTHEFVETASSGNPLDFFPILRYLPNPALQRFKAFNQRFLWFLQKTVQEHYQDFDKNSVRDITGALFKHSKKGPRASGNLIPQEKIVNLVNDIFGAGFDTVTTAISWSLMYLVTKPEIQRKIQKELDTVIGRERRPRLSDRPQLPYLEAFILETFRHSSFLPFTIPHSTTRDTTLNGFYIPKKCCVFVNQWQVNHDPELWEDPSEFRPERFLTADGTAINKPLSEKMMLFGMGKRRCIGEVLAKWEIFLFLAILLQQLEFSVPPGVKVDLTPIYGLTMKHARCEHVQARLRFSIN

[2] = biological target: Glycogen synthase kinase-3 beta (Homo sapiens, UniProt P49841); test: Inhibition of human recombinant GSK-3beta using prephosphorylated GS1 peptide and [gamma-32P]ATP as substrate after 1 hr by liquid scintillation spectrometry
Cytochrome P450 3A4 = Cytochrome P450 3A4 (Homo sapiens, UniProt P08684); test: Inhibition of recombinant human CYP3A4; assay type: ADME
Liver microsome [3] = test: Clearance in rat liver microsomes; assay type: ADME
MDR1 (P-glycoprotein) = test: Permeability efflux ratio in MDR1 expressing pig LLC cells; assay type: ADME, cell-based, Sus scrofa; details: LLC-PK1
[4] = Oral bioavailability in Sprague-Dawley rat at 10 mg/kg; assay type: ADME, organism-based; details: in vivo
[5] = Permeability of the compound across human Caco2 cells; assay type: ADME, cell-based; details: Caco-2, read-out: permeability
[6] = Ratio of drug level in brain (0 to infinity) to plasma (0 to infinity) in ICR mouse at 1 mg/kg, po; assay type: ADME, organism-based; design: dose 1 mg/kg, route oral; details: read-out: BPR
[7] = AUC (0 to infinity) in Sprague-Dawley rat at 10 mg/kg, po; assay type: ADME, organism-based; design: time infinity, dose 10 mg/kg, route oral; details: plasma
Rattus norvegicus = test: Cmax in Sprague-Dawley rat at 10 mg/kg, po; assay type: ADME, organism-based; design: dose 10 mg/kg, route oral; details: in vivo
[8] = Volume of distribution at steady state in Sprague-Dawley rat at 1 mg/kg, iv; assay type: ADME, organism-based; design: dose 1 mg/kg, route intravenous; details: in vivo, read-out: Vdss
[9] = Half life in Sprague-Dawley rat at 10 mg/kg, po; assay type: ADME, organism-based; design: dose 10 mg/kg, route oral; details: in vivo
[10] = biological target: Casein kinase I isoform alpha (Homo sapiens, UniProt P48729); test: Inhibition of CK1 (unknown origin)
[11] = Total clearance in Sprague-Dawley rat at 1 mg/kg, iv; assay type: ADME, organism-based; design: dose 1 mg/kg, route intravenous; details: in vivo

Cytochrome P450 3A4, sequence (P08684 whole entry): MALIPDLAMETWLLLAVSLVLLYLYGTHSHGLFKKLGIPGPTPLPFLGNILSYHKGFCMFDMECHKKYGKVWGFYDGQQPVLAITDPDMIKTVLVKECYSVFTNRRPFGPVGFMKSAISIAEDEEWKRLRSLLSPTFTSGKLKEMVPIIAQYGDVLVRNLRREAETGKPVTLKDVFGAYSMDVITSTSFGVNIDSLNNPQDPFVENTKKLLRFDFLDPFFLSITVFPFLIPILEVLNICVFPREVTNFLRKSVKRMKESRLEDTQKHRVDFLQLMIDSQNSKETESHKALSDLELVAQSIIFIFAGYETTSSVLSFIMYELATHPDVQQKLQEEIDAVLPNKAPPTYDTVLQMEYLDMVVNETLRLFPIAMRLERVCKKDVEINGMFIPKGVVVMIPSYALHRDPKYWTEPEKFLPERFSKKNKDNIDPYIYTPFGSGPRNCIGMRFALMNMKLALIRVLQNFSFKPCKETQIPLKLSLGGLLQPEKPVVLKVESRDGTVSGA
Glycogen synthase kinase-3 beta, sequence (P49841 whole entry): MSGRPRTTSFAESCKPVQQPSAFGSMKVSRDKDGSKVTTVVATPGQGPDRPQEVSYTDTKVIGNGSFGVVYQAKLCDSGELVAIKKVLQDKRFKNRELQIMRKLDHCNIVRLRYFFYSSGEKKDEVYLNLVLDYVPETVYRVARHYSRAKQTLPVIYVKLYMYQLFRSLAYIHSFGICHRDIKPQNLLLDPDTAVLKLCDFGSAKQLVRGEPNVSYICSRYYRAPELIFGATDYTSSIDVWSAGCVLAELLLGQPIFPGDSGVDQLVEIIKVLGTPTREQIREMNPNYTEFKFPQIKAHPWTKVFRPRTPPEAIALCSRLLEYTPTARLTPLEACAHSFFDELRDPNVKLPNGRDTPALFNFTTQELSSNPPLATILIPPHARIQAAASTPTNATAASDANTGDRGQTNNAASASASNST
Cytochrome P450 2D6, sequence (P10635 whole entry): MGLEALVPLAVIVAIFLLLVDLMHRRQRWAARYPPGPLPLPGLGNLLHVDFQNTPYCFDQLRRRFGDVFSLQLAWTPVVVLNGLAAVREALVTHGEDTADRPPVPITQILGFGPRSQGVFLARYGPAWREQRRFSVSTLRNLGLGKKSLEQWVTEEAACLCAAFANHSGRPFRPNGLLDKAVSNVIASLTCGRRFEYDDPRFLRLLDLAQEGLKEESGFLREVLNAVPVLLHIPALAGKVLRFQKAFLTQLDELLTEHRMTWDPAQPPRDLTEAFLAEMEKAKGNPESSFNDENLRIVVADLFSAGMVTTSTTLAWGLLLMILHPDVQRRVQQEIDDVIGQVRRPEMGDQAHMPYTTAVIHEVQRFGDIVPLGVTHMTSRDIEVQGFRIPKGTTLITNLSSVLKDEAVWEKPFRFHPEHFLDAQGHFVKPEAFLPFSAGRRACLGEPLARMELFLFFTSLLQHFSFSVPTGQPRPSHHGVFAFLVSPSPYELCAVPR
Casein kinase I isoform alpha, sequence (P48729 whole entry, canonical isoform): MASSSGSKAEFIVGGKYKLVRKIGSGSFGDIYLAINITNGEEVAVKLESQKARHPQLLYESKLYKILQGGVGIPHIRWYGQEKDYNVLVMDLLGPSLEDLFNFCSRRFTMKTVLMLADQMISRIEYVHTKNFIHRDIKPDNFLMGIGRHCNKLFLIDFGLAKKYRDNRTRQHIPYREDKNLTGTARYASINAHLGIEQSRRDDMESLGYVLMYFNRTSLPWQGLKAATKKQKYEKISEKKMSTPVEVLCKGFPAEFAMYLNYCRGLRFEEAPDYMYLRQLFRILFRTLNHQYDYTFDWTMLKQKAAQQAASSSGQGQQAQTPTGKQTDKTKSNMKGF

| Intrinsic clearance (Liver microsome [1]) [µL/min/mg] | IC50 (Cytochrome P450 2D6) [µM] | IC50 (Cytochrome P450 1A2) [µM] | IC50 [2] [µM] | IC50 (Cytochrome P450 3A4) [µM] | Compound | also measured |
| --- | --- | --- | --- | --- | --- | --- |
| 100 | 32.4 | 23.3 | 0.0032 | – | Cn1c(N2CCO[C@@H](c3ccccc3F)C2)nc(-c2ccncn2)cc1=O | – |
| 70 | 32.3 | 19.5 | 0.00064 | – | Cn1c(N2CCO[C@@H](c3c(F)cccc3Cl)C2)nc(-c2ccncn2)cc1=O | – |
| – | 44.2 | 17.1 | 0.022 | > 50 | Cn1c(N2CCO[C@@H](c3ccc(F)cc3)C2)nc(-c2ccncc2)cc1=O | – |
| – | – | – | 0.43 | – | Cn1c(N2CCO[C@@H](c3ccc(F)cc3)C2)nc(-c2ccncc2Cl)cc1=O | – |
| – | 47.4 | 23.1 | 0.051 | > 50 | Cn1c(N2CCOC(c3ccccc3)C2)nc(-c2ccncc2)cc1=O (racemic) | CLH (Liver microsome [3]): 155 µL/min/mg |
| 180 | 18 | 16.5 | 0.00047 | – | COc1cc(F)ccc1[C@H]1CN(c2nc(-c3ccncn3)cc(=O)n2C)CCO1 | – |
| 30 | 4.5 | > 50 | 0.013 | – | Cn1c(N2CCO[C@@H](c3ccc(C#N)cc3)C2)nc(-c2ccncn2)cc1=O | – |
| 30 | 26.7 | > 50 | 0.0065 | – | Cn1c(N2CCO[C@@H](c3ccc(C#N)cc3F)C2)nc(-c2ccncn2)cc1=O | – |
| 110 | 6.9 | > 50 | 0.0029 | – | COc1ccc([C@H]2CN(c3nc(-c4ccncn4)cc(=O)n3C)CCO2)cc1 | – |
| 60 | 39.7 | 29.4 | 0.012 | > 50 | Cn1c(N2CCO[C@@H](c3ccc(F)cc3)C2)nc(-c2ccncn2)cc1=O | efflux ratio (MDR1 (P-glycoprotein)): 1; bioavailability [4]: 37%; Papp [5]: 58.3 ×10⁻⁶ cm/s; Kp [6]: 3.1; AUC(0-inf) [7]: 1300 ng·h/mL; Cmax (Rattus norvegicus): 221 ng/mL; Vd [8]: 2.4 L/kg; half-life [9]: 1.7 h; IC50 [10]: 1.5 µM; clearance [11]: 48.3 mL/min/kg |
| 190 | 16 | 15.7 | 0.00087 | – | COc1ccccc1[C@H]1CN(c2nc(-c3ccncn3)cc(=O)n2C)CCO1 | – |
| – | – | – | 0.903 | – | Cn1c(N2CCO[C@@H](c3ccc(F)cc3)C2)nc(-c2ccnc(Cl)c2)cc1=O | – |
| – | 22.1 | 5.5 | 0.0074 | > 50 | Cn1c(N2CCO[C@@H](c3ccc(F)cc3)C2)nc(-c2ccncc2F)cc1=O | – |
| – | > 50 | – | – | > 50 | Cn1c(NCC(=O)c2ccccc2)nc(-c2ccncc2)cc1=O | – |
| 200 | > 50 | > 50 | 0.00023 | – | COc1cccc(OC)c1[C@H]1CN(c2nc(-c3ccncn3)cc(=O)n2C)CCO1 | – |
| – | – | – | 0.791 | – | COc1cnccc1-c1cc(=O)n(C)c(N2CCO[C@@H](c3ccc(F)cc3)C2)n1 | – |
| – | 35.8 | 23.9 | 0.027 | > 50 | Cn1c(N2CCOC(c3ccc(F)cc3)C2)nc(-c2ccncc2)cc1=O (racemic) | CLH (Liver microsome [3]): 104 µL/min/mg |
| – | – | – | 2.47 | – | Cc1cnccc1-c1cc(=O)n(C)c(N2CCO[C@@H](c3ccc(F)cc3)C2)n1 | – |
| 130 | 26.6 | > 50 | 0.0046 | > 50 | COc1cccc([C@H]2CN(c3nc(-c4ccncn4)cc(=O)n3C)CCO2)c1 | – |
| – | – | – | 0.077 | – | Cn1c(N2CCO[C@H](c3ccc(F)cc3)C2)nc(-c2ccncc2)cc1=O | – |
